Experimental data as given in patent publication US20260022142A1, “MACROCYCLIC IMMUNOMODULATORS” (Bristol-Myers Squibb Company, priority 2022, published 2026).
Bridge positions count the residues as written; N and C are the ends. Square brackets hold non-standard residues; d marks the D form. Peptide text beside a SMILES is read from it. * marks the point of attachment. Bip = N[C@@H](Cc1ccc(-c2ccccc2)cc1)C(=O)O; Phe(3-Me) = Cc1cccc(C[C@H](N)C(=O)O)c1; Cha = N[C@@H](CC1CCCCC1)C(=O)O; Carboxymethyl = O=C(O)C*; Orn = NCCC[C@H](N)C(=O)O; Aun = NCCCCCCCCCCC(=O)O; Dab = NCC[C@H](N)C(=O)O; Dap = NC[C@H](N)C(=O)O; AEEA = NCCOCCOCC(=O)O

The compounds below were run against T1, PD-1/PD-L1 interaction (PE-labeled human PD-L1-Ig binding to Jurkat cell line over-expressing human PD-1) (Homo sapiens, UniProt Q15116) (assay: Jurkat-PD-1 Cell Binding High-Content Screening Assay (CBA)). Settings: Jurkat cell line over-expressing human PD-1; PE-labeled PD-L1-Ig 20 nM final; read-out: Jurkat hPD1-PDL1 IC50.
T1 construct: expressed in transfected cells; host or cells: Jurkat
T1 sequence (Q15116 25-288): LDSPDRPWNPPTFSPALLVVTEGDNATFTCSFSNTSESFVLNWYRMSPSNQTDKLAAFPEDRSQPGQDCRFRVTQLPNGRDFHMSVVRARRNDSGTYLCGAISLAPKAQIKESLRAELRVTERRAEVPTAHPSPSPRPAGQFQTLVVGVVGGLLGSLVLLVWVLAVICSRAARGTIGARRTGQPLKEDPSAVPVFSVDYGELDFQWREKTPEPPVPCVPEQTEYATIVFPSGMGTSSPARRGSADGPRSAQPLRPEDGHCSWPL
Format: cell-based
How it was run: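 Jurkat-hPD-1 cells, DMEM/10% FCS; cpd 2 h 37° C; PE-PD-L1-Ig 20 nM final, 1 h; 4% PFA fix + Hoechst 33342, 3× dPBS wash; high-content imaging read-out.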

Row | Structure (SMILES) | IC50
1 | Cc1cccc(C[C@@H]2NC(=O)[C@H](CC(=O)O)NC(=O)[C@H](Cc3ccc(OCC(=O)O)cc3)NC(=O)[C@H](CN)NC(=O)CSC[C@@H](C(=O)NCCOCCOCC(=O)NCCCCCCCCCCC(=O)O)NC(=O)[C@H](CCCN)NC(=O)[C@H](C(C)C)NC(=O)[C@H](CC3CCCCC3)NC(=O)[C@H](CCN)NC(=O)[C@@H](CC(C)C)NC(=O)[C@H](CCCN)NC(=O)[C@H](CCC(=O)O)NC(=O)[C@H](Cc3ccc(-c4ccccc4)cc3)NC(=O)[C@H](C(C)C)NC2=O)c1 [Compound 2667] ({CH2CO}-[Dap]Y(Carboxymethyl)D[Phe(3-Me)]V[Bip]E[Orn][dL][Dab][Cha]V[Orn]C[AEEA][Aun]-OH; thioether N-14) | 9.6 nM
2 | Cc1cccc(C[C@@H]2NC(=O)[C@H](CC(=O)O)NC(=O)[C@H](Cc3ccc(OCC(=O)O)cc3)NC(=O)[C@H](CN)NC(=O)CSC[C@@H](C(=O)N[C@@H](CCCCN)C(=O)NCCOCCOCC(=O)NCCCCCCCCCCC(=O)O)NC(=O)[C@H](CN)NC(=O)[C@H](C(C)C)NC(=O)[C@H](CC3CCCCC3)NC(=O)[C@H](CCN)NC(=O)[C@@H](CC(C)C)NC(=O)[C@H](CCCN)NC(=O)[C@H](CCC(=O)O)NC(=O)[C@H](Cc3ccc(-c4ccccc4)cc3)NC(=O)[C@H](C(C)C)NC2=O)c1 [Compound 2668] ({CH2CO}-[Dap]Y(Carboxymethyl)D[Phe(3-Me)]V[Bip]E[Orn][dL][Dab][Cha]V[Dap]CK[AEEA][Aun]-OH; thioether N-14) | 10.8 nM
3 | Cc1cccc(C[C@@H]2NC(=O)[C@H](CC(=O)O)NC(=O)[C@H](Cc3ccc(OCC(=O)O)cc3)NC(=O)[C@H](CN)NC(=O)CSC[C@@H](C(=O)N[C@@H](CCCCN)C(=O)NCCOCCOCC(=O)NCCCCCCCCCCC(=O)O)NC(=O)[C@H](CCCN)NC(=O)[C@H](C(C)C)NC(=O)[C@H](CC3CCCCC3)NC(=O)[C@H](CCN)NC(=O)[C@@H](CC(C)C)NC(=O)[C@H](CCCN)NC(=O)[C@H](CCC(=O)O)NC(=O)[C@H](Cc3ccc(-c4ccccc4)cc3)NC(=O)[C@H](C(C)C)NC2=O)c1 [Compound 2669] ({CH2CO}-[Dap]Y(Carboxymethyl)D[Phe(3-Me)]V[Bip]E[Orn][dL][Dab][Cha]V[Orn]CK[AEEA][Aun]-OH; thioether N-14) | 11.5 nM
4 | Cc1cccc(C[C@@H]2NC(=O)[C@H](CC(=O)O)NC(=O)[C@H](Cc3ccc(OCC(=O)O)cc3)NC(=O)[C@H](CN)NC(=O)CSC[C@@H](C(=O)N[C@@H](CCCCN)C(=O)NCCOCCOCC(=O)NCCCCCCCCCCC(=O)O)NC(=O)[C@H](CCCNC(=N)N)NC(=O)[C@H](C(C)C)NC(=O)[C@H](CC3CCCCC3)NC(=O)[C@H](CCN)NC(=O)[C@@H](CC(C)C)NC(=O)[C@H](CCCN)NC(=O)[C@H](CCC(=O)O)NC(=O)[C@H](Cc3ccc(-c4ccccc4)cc3)NC(=O)[C@H](C(C)C)NC2=O)c1 [Compound 2670] ({CH2CO}-[Dap]Y(Carboxymethyl)D[Phe(3-Me)]V[Bip]E[Orn][dL][Dab][Cha]VRCK[AEEA][Aun]-OH; thioether N-14) | 10.8 nM
5 | CC(C)C[C@H]1NC(=O)[C@H](CCCN)NC(=O)[C@H](CCC(=O)O)NC(=O)[C@H](Cc2ccc(-c3ccccc3)cc2)NC(=O)[C@H](C(C)C)NC(=O)[C@H](Cc2c[nH]c3ccccc23)NC(=O)[C@H](CC(=O)O)NC(=O)[C@H](Cc2ccc(OCC(=O)O)cc2)NC(=O)[C@H](Cc2ccc(OCC(=O)O)cc2)NC(=O)CSC[C@@H](C(=O)NCCOCCOCC(=O)N[C@@H](CCN)C(=O)NCCCCCCCCCCC(=O)O)NC(=O)[C@H](CCCNC(=N)N)NC(=O)[C@H](C(C)C)NC(=O)[C@H](CC2CCCCC2)NC(=O)[C@H](CCN)NC1=O [Compound 2671] ({CH2CO}-Y(Carboxymethyl)Y(Carboxymethyl)DWV[Bip]E[Orn][dL][Dab][Cha]VRC[AEEA][Dab][Aun]-OH; thioether N-14) | 14.1 nM
